Ten compounds from patent publication US10450378B2, “Cytotoxic and anti-mitotic compounds, and methods of using the same” (priority 2014, dated 2019) can be followed below.

Like-named read-outs stand apart in the source and are kept apart here.

Test in all cases: Cellular cytotoxicity of compounds of Formula I, Example 3.1
Common to all, as to type: cell-based

In assay [1] the test system is Human Pancreatic cell line BxPC-3. To be noted: five nights, CellTiter-Glo. The procedure:
(§1) Compounds were tested on one or more of Human T-cell leukemia cell line Jurkat (ATCC: TIB-152); Human breast cancer cell lines HCC1954 (ATCC: CRL-2338) and JIMT-1 (DSMZ: ACC 589); Human Pancreatic cell line BxPC-3 (ATCC: CRL.1687), Human ovarian adenocarcinoma cell line SK-OV-3 (ATCC: HTB-77) and Human gastric carcinoma cell line NCI-N87 (ATCC: CRL. 5822); to assess their cytotoxicity.
(§2) Briefly, cells were obtained from commercial sources and cultured as described in the product sheet provided. Cells were removed from their culture vessels and the resulting cell suspension was counted using a ViCell (Beckman Coulter), then seeded at 25,000 cells/mL (2,500 cells/well) in Costar 3904 black walled, flat bottomed 96-well plates (cells were seeded in the inner 60 wells of 96-well TC plates, and outer edge wells filled with water). Adherent cell lines were incubated for one night at 37° C./5% CO2 atmosphere to allow the cells to attach to the microtiter plate surface, while suspension (Jurkat) cells were plated immediately before use. Cytotoxins were dissolved and serially diluted in dimethyl sulfoxide and then the solutions were added to complete growth medium at five-times the desired maximum final concentration. The cytotoxins were then titrated in growth medium, normally 1:3, over eight steps. A control with no test article present (growth medium alone) was included on each microtiter plate in sextuplicate. The prepared toxin titrations were added (25 μL/well) in triplicate to each cell line assayed. The cells and titrations were incubated at 37° C./5% CO2 for three nights (Jurkat) and five nights (all other cell lines). After the incubation, cell viability was measured using CellTiter-Glo® by adding 30 μL of prepared CellTiter-Glo® reagent to each assay well. The mixtures were incubated for at least twenty minutes in the dark prior to measuring emitted luminescence using a microplate luminometer (500 ms integration time). The collected relative luminescence units (RLU) were converted to % cytotoxicity using the growth medium alone control mentioned above (% Cytotoxicity=1-[well RLU/average medium alone control RLU]×100%).
On the technique in general: Cellular ATP, detected with luciferase, serves as a proxy for viable cell number.

Assay [2] deals with Human T-cell leukemia cell line Jurkat. To be noted: Homo sapiens, Jurkat, read-out: EC50 (nM) Jurkat. The procedure: as §1, §2
For assay [3], the system named is Human gastric carcinoma cell line NCI-N87. The settings on record: five nights, CellTiter-Glo. The protocol: as §1, §2

Take `CC[C@H](C)[C@@H]([C@@H](CC(=O)N1CCC[C@H]1[C@H](OC)[C@@H](C)C(=O)NS(=O)(=O)c1ccc(NC(=O)C(F)(F)F)cc1)OC)N(C)C(=O)[C@@H](NC(=O)[C@H]1CCCCN1C(C)C)C(C)C` [Compound 15, (R)-1-Isopropyl-N-((S)-1-(((3R,4S,5S)-3-methoxy-1-((S)-2-((1R,2R)-1-methoxy-2-methyl-3-oxo-3-((4-(2,2,2-trifluoroacetamido)phenyl)sulfonamido)propyl)pyrrolidin-1-yl)-5-methyl-1-oxoheptan-4-yl)(methyl)amino)-3-methyl-1-oxobutan-2-yl)piperidine-2-carboxamide]: the EC50 (in general, the concentration at which the effect is half-maximal) is 14.5 nM in assay [1]; 10.1 nM in assay [2] (three nights, CellTiter-Glo); 11.7 nM in assay [3].

In the case of `CC[C@H](C)[C@@H]([C@@H](CC(=O)N1CCC[C@H]1[C@H](OC)[C@@H](C)C(=O)NS(=O)(=O)c1ccc(N)cc1)OC)N(C)C(=O)[C@@H](NC(=O)[C@H]1CCCCN1C(C)C)C(C)C` [Compound 16, (R)-N-((S)-1-(((3R,4S,5S)-1-((S)-2-((1R,2R)-3-((4-Aminophenyl)sulfonamido)-1-methoxy-2-methyl-3-oxopropyl)pyrrolidin-1-yl)-3-methoxy-5-methyl-1-oxoheptan-4-yl)(methyl)amino)-3-methyl-1-oxobutan-2-yl)-1-isopropylpiperidine-2-carboxamide], the EC50 was found to be 17 nM in assay [1]; 11.5 nM in assay [2] (three nights, CellTiter-Glo); 14.4 nM in assay [3].

Take `CC[C@H](C)[C@@H]([C@@H](CC(=O)N1CCC[C@H]1[C@H](OC)[C@@H](C)C(=O)NS(=O)(=O)c1ccc(N)cc1)OC)N(C)C(=O)[C@@H](NC(=O)C(C)(C)N)C(C)C` [Compound 17, (S)-2-(2-Amino-2-methylpropanamido)-N-((3R,4S,5S)-1-((S)-2-((1R,2R)-3-((4-aminophenyl)sulfonamido)-1-methoxy-2-methyl-3-oxopropyl)pyrrolidin-1-yl)-3-methoxy-5-methyl-1-oxoheptan-4-yl)-N,3-dimethylbutanamide]: the EC50 in assay [1] is above 100 nM; in assay [2] (three nights, CellTiter-Glo), 30.5 nM; in assay [3] it was above 100 nM.

For `CC[C@H](C)[C@@H]([C@@H](CC(=O)N1CCC[C@H]1[C@H](OC)[C@@H](C)C(=O)NS(=O)(=O)c1ccc(N)cc1)OC)N(C)C(=O)[C@@H](NC(=O)[C@@H](NC)C(C)(C)c1ccccc1)C(C)C` [Compound 19, (S)-N-((3R,4S,5S)-1-((S)-2-((1R,2R)-3-((4-Aminophenyl)sulfonamido)-1-methoxy-2-methyl-3-oxopropyl)pyrrolidin-1-yl)-3-methoxy-5-methyl-1-oxoheptan-4-yl)-N,3-dimethyl-2-((S)-3-methyl-2-(methylamino)-3-phenylbutanamido)butanamide], the EC50 in assay [1] was 10.2 nM; in assay [2] (three nights, CellTiter-Glo), 2.2 nM; in assay [3], 12.8 nM.

Regarding `CC[C@H](C)[C@@H]([C@@H](CC(=O)N1CCC[C@H]1[C@H](OC)[C@@H](C)C(=O)NS(=O)(=O)c1ccc(N)cc1)OC)N(C)C(=O)[C@@H](NC(=O)[C@@H](NC)C(C)C)C(C)C` [Compound 20, (S)-N-((3R,4S,5S)-1-((S)-2-((1R,2R)-3-((4-Aminophenyl)sulfonamido)-1-methoxy-2-methyl-3-oxopropyl)pyrrolidin-1-yl)-3-methoxy-5-methyl-1-oxoheptan-4-yl)-N,3-dimethyl-2-((S)-3-methyl-2-(methylamino)butanamido)butanamide], the EC50 in assay [1] is above 300 nM; in assay [2] (three nights, CellTiter-Glo), above 100 nM; in assay [3], above 300 nM.

In the case of `CC[C@H](C)[C@@H]([C@@H](CC(=O)N1CCC[C@H]1[C@H](OC)[C@@H](C)C(=O)NS(=O)(=O)c1ccc(CNC(=O)C(F)(F)F)cc1)OC)N(C)C(=O)[C@@H](NC(=O)[C@H](C(C)C)N(C)C)C(C)C` [Compound 21, (S)-2-((S)-2-(Dimethylamino)-3-methylbutanamido)-N-((3R,4S,5S)-3-methoxy-1-((S)-2-((1R,2R)-1-methoxy-2-methyl-3-oxo-3-((4-((2,2,2-trifluoroacetamido)methyl)phenyl)sulfonamido)propyl)pyrrolidin-1-yl)-5-methyl-1-oxoheptan-4-yl)-N,3-dimethylbutanamide], the EC50 was above 100 nM in assay [1]; around 100 nM in assay [2] (three nights, CellTiter-Glo); above 300 nM in assay [3].

For `CC[C@H](C)[C@@H]([C@@H](CC(=O)N1CCC[C@H]1[C@H](OC)[C@@H](C)C(=O)NS(=O)(=O)c1ccc(C2(NC(=O)C(F)(F)F)CC2)cc1)OC)N(C)C(=O)[C@@H](NC(=O)[C@H](C(C)C)N(C)C)C(C)C` [Compound 29, (S)-2-((S)-2-(Dimethylamino)-3-methylbutanamido)-N-((3R,4S,5S)-3-methoxy-1-((S)-2-((1R,2R)-1-methoxy-2-methyl-3-oxo-3-(4-(1-(2,2,2-trifluoroacetamido)cyclopropyl)phenylsulfonamido)propyl)pyrrolidin-1-yl)-5-methyl-1-oxoheptan-4-yl)-N,3-dimethylbutanamide], the EC50 in assay [2] (three nights, CellTiter-Glo) is 22.1 nM.

With `CC[C@H](C)[C@@H]([C@@H](CC(=O)N1CCC[C@H]1[C@H](OC)[C@@H](C)C(=O)NS(=O)(=O)c1ccc(C2(N)CC2)cc1)OC)N(C)C(=O)[C@@H](NC(=O)[C@H](C(C)C)N(C)C)C(C)C` [Compound 30, (S)-N-((3R,4S,5S)-1-((S)-2-((1R,2R)-3-(4-(1-Aminocyclopropyl)phenylsulfonamido)-1-methoxy-2-methyl-3-oxopropyl)pyrrolidin-1-yl)-3-methoxy-5-methyl-1-oxoheptan-4-yl)-2-((S)-2-(dimethylamino)-3-methylbutanamido)-N,3-dimethylbutanamide], in assay [2] (three nights, CellTiter-Glo), the EC50 was above 100 nM.

`CC[C@H](C)[C@@H]([C@@H](CC(=O)N1CCC[C@H]1[C@H](OC)[C@@H](C)C(=O)N[C@@H](Cc1ccccc1)C(=O)NS(=O)(=O)c1ccc(C2(NC(=O)C(F)(F)F)CC2)cc1)OC)N(C)C(=O)[C@@H](NC(=O)[C@H](C(C)C)N(C)C)C(C)C` [Compound 31, (S)-2-((S)-2-(Dimethylamino)-3-methylbutanamido)-N-((3R,4S,5S)-3-methoxy-1-((S)-2-((1R,2R)-1-methoxy-2-methyl-3-oxo-3-((S)-1-oxo-3-phenyl-1-(4-(1-(2,2,2-trifluoroacetamido)cyclopropyl)phenylsulfonamido)propan-2-ylamino)propyl)pyrrolidin-1-yl)-5-methyl-1-oxoheptan-4-yl)-N,3-dimethylbutanamide]: in assay [2], the EC50 came out at 31.1 nM.

On to `CC[C@H](C)[C@@H]([C@@H](CC(=O)N1CCC[C@H]1[C@H](OC)[C@@H](C)C(=O)N[C@@H](Cc1ccccc1)C(=O)NS(=O)(=O)c1ccc(C2(N)CC2)cc1)OC)N(C)C(=O)[C@@H](NC(=O)[C@H](C(C)C)N(C)C)C(C)C` [Compound 32, (S)-N-((3R,4S,5S)-1-((S)-2-((1R,2R)-3-((S)-1-(4-(1-Aminocyclopropyl)phenylsulfonamido)-1-oxo-3-phenylpropan-2-ylamino)-1-methoxy-2-methyl-3-oxopropyl)pyrrolidin-1-yl)-3-methoxy-5-methyl-1-oxoheptan-4-yl)-2-((S)-2-(dimethylamino)-3-methylbutanamido)-N,3-dimethylbutanamide], for which the EC50 in assay [2] (three nights, CellTiter-Glo) was above 100 nM.
